Where a name gives a salt, the structure may show the parent alone.

The data set in a line: Hygroscopicity / humidity stability of salts by Dynamic Vapour Sorption (DVS). The class given is physicochemical. To be noted: solid salt.

On to `CC(C)N1CCN(C(=O)c2ccc(CN3CCOCC3)cc2)CC1.O=C(O)/C=C\C(=O)O` [(4-Isopropyl-piperazin-1-yl)-(4-morpholin-4-ylmethyl-phenyl)-methanone Bis-maleate Salt], for which the “hygroscopicity by DVS” value is “hygroscopic”.

For the molecule `CC(C)N1CCN(C(=O)c2ccc(CN3CCOCC3)cc2)CC1.O=C(O)/C=C/C(=O)O` [(4-Isopropyl-piperazin-1-yl)-(4-morpholin-4-ylmethyl-phenyl)-methanone Mono-fumarate Salt], the “relative humidity up to which the salt is stable, by DVS” value is recorded as “up to 70%”.

As for `CC(C)N1CCN(C(=O)c2ccc(CN3CCOCC3)cc2)CC1` [(4-Isopropyl-piperazin-1-yl)-(4-morpholin-4-ylmethyl-phenyl)-methanone Mono-succinate Salt], the “hygroscopicity by DVS” value (Mono-succinate Salt) was “non-hygroscopic”.

On to `CC(C)N1CCN(C(=O)c2ccc(CN3CCOCC3)cc2)CC1` [(4-Isopropyl-piperazin-1-yl)-(4-morpholin-4-ylmethyl-phenyl)-methanone, dihydrobromide semi-hydrate salt], for which the “relative humidity above which the salt is hygroscopic, by DVS” value is given as “above 10 % RH”.

As to `CC(C)N1CCN(C(=O)c2ccc(CN3CCOCC3)cc2)CC1` [(4-Isopropyl-piperazin-1-yl)-(4-morpholin-4-ylmethyl-phenyl)-methanone, dihydrochloride monohydrate salt], the “hygroscopicity by DVS” value is listed as “hygroscopic”.
